Assay [1] addresses T1, human GHS-R 1a (Homo sapiens, UniProt Q92847). As to the kind of experiment: GHS-R 1a receptor-ligand binding assay (membrane preparations from transfected LLC PK-1 cells). Further details: expressed in transfected cells. The settings on record: displacement of 125I-His9-ghrelin; plasma membranes of LLC PK-1 cells transiently transfected with human GHS-R 1a; mean of at least two independent experiments in triplicates. As for the experimental part:
II) GHS-R 1a Receptor-Ligand Binding Assay (Membrane Preparations from Transfected LLC PK-1 Cells)
The GHS-R 1a receptor binding/affinity studies were performed according to Guerlavais et al. (J. Med. Chem. 2003, 46: 1191-1203).
Isolated plasma membranes from LLC PK-1 cells, a renal epithelial cell line originally derived from porcine kidneys (ECACC No. 86121112) (10 μg of protein), that were transiently transfected with human GHS-R 1a cDNA (Guerlavais et al., J. Med. Chem. 2003, 46: 1191-1203), were incubated in homogenization buffer HB [50 mM Tris (pH 7.3), 5 mM MgCl2, 2.5 mM EDTA, and 30 μg/mL bacitracin (Sigma)] for 60 min at 25° C. (steady-state conditions) with […] ^125I-His^9-ghrelin (Amersham) in the presence or absence of competing compounds (compounds of the invention).
Nonspecific binding was defined using an excess (10^−6 M) of ghrelin. The binding reaction was stopped by addition of 4 mL of ice-cold HB followed by rapid filtration over Whatman GP/C filters presoaked with 0.5% polyethyleneimine to prevent excessive binding of radioligand to the filters. Filters were rinsed three times with 3 mL of icecold wash buffer [50 mM Tris (pH 7.3), 10 mM MgCl2, 2.5 mM EDTA, and 0.015% (w/v) X-100 Triton], and the radioactivity bound to membranes was measured in a gammacounter (Kontron Analytical Gamma Matic, Automatic gamma counting system).
The concentration of test compounds required to inhibit radiolabelled ghrelin binding by 50% (IC50) was determined by fitting competitive binding curves using non-linear regression (PRISM 3.0, Graph Pad San Diego, USA).
In the following table 2 results obtained for selected compounds of the invention are presented in comparison to an example of the prior art. IC50 values given are the mean of at least two independent experiments performed in triplicates.
For orientation: Loss of bound radioactivity is the signal in a displacement assay; it reports binding, not function.

For assay [2], the target named is T1, human GHS-R 1a. The assay can be described thus: In vitro intracellular calcium release assay using human GHS-R 1a transfected CHO cells. The format is cell-based. Further details: expressed in transfected cells; host or cells: CHO-K1 Chinese hamster ovary cells (ATCC No. CCL-61), transient transfection by electroporation. The conditions noted are these: for EC50: agonists, dose-response curve of intracellular calcium release; for activation at 1 µM: intracellular calcium release, compound at 10^-6 M, relative to basal level (0%) and 1 μM ghrelin (100%). On the procedure:
The ability to properly activate the receptors is assessed for any compound of the invention by comparing the degree of activation (increase of intracellular calcium) of GHS-R 1a by the compound to be tested (at 10^−6 M concentration) to the degree of activation (increase of intracellular calcium) of GHS-R 1a by 10^−6 M ghrelin (100%) and to the basal level (0%). Such assessment can be readily performed by the skilled artisan due to his expert knowledge. The output is a percentage value for each compound to be tested. […]
III) In Vitro Intracellular Calcium Release Assay Using Human GHS-R 1a Transfected CHO Cells
The potential of the compounds of the invention to modulate GHS receptor activity was assessed by an in vitro intracellular Calcium release assay employing CHO cells that were transfected with human GHS-R 1a.
Release of intracellular calcium or inhibition thereof was measured using the fluorescent calcium indicator assay (FLIPR) and Fluo-4 AM.
CHO cells (CHO-KI Chinese Hamster Ovary cell line, ATCC No. CCL-61) were transiently transfected with human GHS-R 1a cDNA by electroporation and plated into 96-well black bottom plates (Corning 3603) (80,000 cells/well). Transient transfections were performed using the Easyject Optima Electroporator (Equibio), according to the manufacturer's instructions.
Transfected cells were grown in Dulbecco's modified Eagle's medium without phenol red, supplemented with 10% (v/v) non-essential amino acids, […] glutamine and streptomycin-penicillin (250 μg/ml-250 u/ml) (all purchased from Cambrex) at 37° C., 5% CO2 in a humidified atmosphere for 24 hours.
After incubation, transfected cells were washed with 150 μl Buffer A [Hanks' balanced salt solution (Sigma H-6648), 0.5% (v/v) BSA (Sigma A-7906), 20 mM CaCl2, 2.5 mM probenecid (pH 7.4, dissolved in 1 M NaOH) (Sigma P-8761)] and were then loaded with fluorescent calcium indicator Fluo-4 AM (10^−6 M) (Interchim UP72972) prepared in Buffer A, additionally containing 0.06% pluronic acid (Molecular probes P-6867) (a […] detergent which facilitates Fluo-4AM ester loading). (Loading: 100 μl per well of Buffer A containing 120 μl/ml Pluronic Acid and 1 μM Fluo-4AM was added to the cells).
After loading with Fluo-4 AM, transfected cells were incubated for 1 hour in the dark at 37° C.
Compounds to be tested were dissolved in Buffer A in triplicates at a concentration of 10^−6 M and distributed into another 96-well plate (Fisher Labosi A1210500).
Following incubation, excess Fluo-4AM was removed, 100 μl of Buffer A was added to each well at room temperature and immediately removed by aspiration. This was then repeated, before adding 50 μl Buffer A to each well.
Transfected cells were further incubated room temperature for 30 min to allow complete de-esterification of intracellular Fluo-4AM esters.
Subsequently, both plates, the black-bottom plate containing transfected cells and the microtiter plate containing the compounds to be tested, were then placed into a temperature-regulated (25° C.) FlexStation machine (benchtop scanning fluorometer Flex Station II, Molecular Devices, Sunnyvale, Calif., USA) for fluorescence output measurements.
Basal fluorescence output from the transfected cells was measured for 15 sec and then 50 μl of the compounds to be tested were automatically distributed into the wells containing the transfected cells. The fluorescence output was then recorded for a further 45 sec.
Excitation and emission wavelengths were 485 nm and 525 nm, respectively. Basal fluorescence intensity of Fluo-4AM-loaded transfected cells without compounds to be tested varied between 800-1200 arbitrary units, whereas maximal fluorescence output of dye-loaded transfected cells upon incubation with the compounds to be tested varied between 5000-7000 arbitrary units and was equivalent to that achieved by stimulation of dye-loaded transfected cells with 10^−6 M ghrelin. […]

T1 sequence (Q92847 whole entry): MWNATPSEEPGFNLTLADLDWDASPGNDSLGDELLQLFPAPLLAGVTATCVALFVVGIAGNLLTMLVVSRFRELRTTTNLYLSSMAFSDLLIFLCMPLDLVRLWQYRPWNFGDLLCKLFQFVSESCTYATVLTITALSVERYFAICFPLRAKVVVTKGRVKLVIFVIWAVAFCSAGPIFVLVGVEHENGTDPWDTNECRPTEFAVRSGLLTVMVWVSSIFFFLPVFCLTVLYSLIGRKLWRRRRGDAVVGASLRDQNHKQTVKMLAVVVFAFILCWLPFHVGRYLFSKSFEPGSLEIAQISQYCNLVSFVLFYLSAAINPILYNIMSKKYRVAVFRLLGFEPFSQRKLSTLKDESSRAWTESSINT

On to `O=C(N[C@H](Cc1c[nH]c2ccccc12)c1nnc(CCc2c[nH]c3ccccc23)n1Cc1cccc2ccccc12)C1CCOCC1` [Compound 20, N-((R)-1-(5-(2-(1H-indol-3-yl)ethyl)-4-((naphthalen-1-yl)methyl)-4H-1,2,4-triazol-3-yl)-2-(1H-indol-3-yl)ethyl)-tetrahydro-2H-pyran-4-carboxamide], for which, on human GHS-R 1a [1], the IC50 (commonly the midpoint of a concentration-inhibition curve) is 0.18 µM. Moreover, at human GHS-R 1a [2], the EC50 (usually the concentration at which the effect is half-maximal) was 0.0006 µM and the activation at 1 µM amounted to 80%.
For the compound `O=C(N[C@H](Cc1c[nH]c2ccccc12)c1nnc(CCCc2c[nH]c3ccccc23)n1Cc1ccccc1)C1CCNCC1` [Compound 22, N-((R)-1-(5-(3-(1H-indol-3-yl)propyl)-4-benzyl-4H-1,2,4-triazol-3-yl)-2-(1H-indol-3-yl)ethyl)piperidine-4-carboxamide], the IC50 on human GHS-R 1a [1] turned out to be 0.04 µM. Besides, on human GHS-R 1a [2], the concentration giving a half-maximal response (EC50) stood at 0.0016 µM and the activation at 1 µM was determined as 150%.
`O=C(Cc1ccccn1)N[C@H](Cc1c[nH]c2ccccc12)c1nnc(CCc2c[nH]c3ccccc23)n1Cc1cccc2ccccc12` [Compound 30, N-((R)-1-(5-(2-(1H-indol-3-yl)ethyl)-4-((naphthalen-1-yl)methyl)-4H-1,2,4-triazol-3-yl)-2-(1H-indol-3-yl)ethyl)-2-(pyridin-2-yl)acetamide]: the IC50 on human GHS-R 1a [1] came out at 0.125 µM. The activation at 1 µM on human GHS-R 1a [2] was 0%.
Regarding `O=C(N[C@H](Cc1c[nH]c2ccccc12)c1nnc(CCc2c[nH]c3ccccc23)n1Cc1cccc2ccccc12)[C@@H]1CCCN1` [Compound 31, (2S)-N-((R)-1-(5-(2-(1H-indol-3-yl)ethyl)-4-((naphthalen-1-yl)methyl)-4H-1,2,4-triazol-3-yl)-2-(1H-indol-3-yl)ethyl)pyrrolidine-2-carboxamide], at human GHS-R 1a [1], the IC50 turned out to be 0.505 µM. Besides, on human GHS-R 1a [2], the EC50 is 0.0027 µM and the activation at 1 µM amounted to 100%.
On human GHS-R 1a [1], `O=C(N[C@H](Cc1c[nH]c2ccccc12)c1nnc(CCc2c[nH]c3ccccc23)n1Cc1cccc2ccccc12)c1cnccn1` [Compound 32, N-((R)-1-(5-(2-(1H-indol-3-yl)ethyl)-4-((naphthalen-1-yl)methyl)-4H-1,2,4-triazol-3-yl)-2-(1H-indol-3-yl)ethyl)pyrazine-2-carboxamide] gave an IC50 of 0.122 µM. The activation at 1 µM at human GHS-R 1a [2] is 0%.
At human GHS-R 1a [1], `O=C(N[C@H](Cc1c[nH]c2ccccc12)c1nnc(Cc2ccccc2)n1Cc1ccc(Cl)c(Cl)c1)C1CCNCC1` [Compound 33, N-((R)-1-(4-(3,4-dichlorobenzyl)-5-benzyl-4H-1,2,4-triazol-3-yl)-2-(1H-indol-3-yl)ethyl)piperidine-4-carboxamide] displayed an IC50 of 0.005 µM. Further, at human GHS-R 1a [2], the EC50 came out at 0.0015 µM and the activation at 1 µM was found to be 120%.
`O=C(N[C@H](Cc1c[nH]c2ccccc12)c1nnc(CCCc2c[nH]c3ccccc23)n1Cc1cccc2ccccc12)C1CCNCC1` [Compound 39, N-((R)-1-(5-(3-(1H-indol-3-yl)propyl)-4-((naphthalen-1-yl)methyl)-4H-1,2,4-triazol-3-yl)-2-(1H-indol-3-yl)ethyl)piperidine-4-carboxamide] displayed an IC50 at human GHS-R 1a [1] of 0.0211 µM. For the same compound, on human GHS-R 1a [2], the 50% effective concentration (EC50) worked out at 0.001 µM.
As to `CC(C)(N)C(=O)N[C@H](Cc1c[nH]c2ccccc12)c1nnc(CCCc2c[nH]c3ccccc23)n1Cc1ccccc1` [Compound 42, N-((R)-1-(5-(3-(1H-indol-3-yl)propyl)-4-benzyl-4H-1,2,4-triazol-3-yl)-2-(1H-indol-3-yl)ethyl)-2-amino-2-methylpropanamide], the IC50 at human GHS-R 1a [1] amounted to 0.5 µM. Besides, at human GHS-R 1a [2], the EC50 stood at 0.034 µM and the activation at 1 µM was found to be 100%.
Consider `NC1(C(=O)N[C@H](Cc2c[nH]c3ccccc23)c2nnc(CCCc3c[nH]c4ccccc34)n2Cc2ccccc2)CCNCC1` [Compound 43, N-((R)-1-(5-(3-(1H-indol-3-yl)propyl)-4-benzyl-4H-1,2,4-triazol-3-yl)-2-(1H-indol-3-yl)ethyl)-4-aminopiperidine-4-carboxamide], for which the IC50 on human GHS-R 1a [1] was 0.035 µM. On human GHS-R 1a [2], the EC50 was found to be 0.0064 µM.
For the compound `O=C(N[C@H](Cc1c[nH]c2ccccc12)c1nnc(CCCc2c[nH]c3ccccc23)n1Cc1cccc2ccccc12)C1CCCN1` (stereo partly drawn) [Compound 44, N-((R)-1-(5-(3-(1H-indol-3-yl)propyl)-4-((naphthalen-1-yl)methyl)-4H-1,2,4-triazol-3-yl)-2-(1H-indol-3-yl)ethyl)pyrrolidine-2-carboxamide], the IC50 at human GHS-R 1a [1] came to 0.6 µM. Besides, at human GHS-R 1a [2], the EC50 is 0.012 µM and the activation at 1 µM was determined as 100%.
Taken in the same sequence, the figures for `COc1ccc(Cn2c(CCc3c[nH]c4ccccc34)nnc2[C@@H](Cc2c[nH]c3ccccc23)NC(=O)C2(N)CCNCC2)cc1` [Compound 47, N-((R)-1-(5-(2-(1H-indol-3-yl)ethyl)-4-(4-methoxybenzyl)-4H-1,2,4-triazol-3-yl)-2-(1H-indol-3-yl)ethyl)-4-aminopiperidine-4-carboxamide] were 0.15 µM, 0.038 µM and 100%.
Taken in the same sequence, the figures for `NC1(C(=O)N[C@H](Cc2c[nH]c3ccccc23)c2nnc(CCc3c[nH]c4ccccc34)n2Cc2cccc3ccccc23)CCNCC1` [Compound 48, N-((R)-1-(5-(2-(1H-indol-3-yl)ethyl)-4-((naphthalen-1-yl)methyl)-4H-1,2,4-triazol-3-yl)-2-(1H-indol-3-yl)ethyl)-4-aminopiperidine-4-carboxamide] were 0.012 µM, 0.0039 µM and 100%.
Taken in the same sequence, the figures for `NC1(C(=O)N[C@H](Cc2c[nH]c3ccccc23)c2nnc(CCc3ccccc3)n2Cc2cccc3ccccc23)CCNCC1` [Compound 49, N-((R)-2-(1H-indol-3-yl)-1-(4-((naphthalen-1-yl)methyl)-5-phenethyl-4H-1,2,4-triazol-3-yl)ethyl)-4-aminopiperidine-4-carboxamide] were 0.0445 µM, 0.0101 µM and 100%.

These data come from patent publication US20090239877A1, “NOVEL 1,2,4-TRIAZOLE DERIVATIVES AND PROCESS OF MANUFACTURING THEREOF” (AETERNA ZENTARIS GmbH, priority 2008, published 2009).
